According to US12702715B2, “Targeted RNA degradation allows precision repurposing of protein-targeted small molecule medicines to RNA” (University of Florida Research Foundation, Incorporated, priority 2020, dated 2026):

Experiments:
MDA-MB-231-Luc cells = type: in vivo, mouse; conditions: for pre-miR-21 levels in lung tissue: FISH; for pre-miR-21 levels in lung tissue / ERK levels in lung tissue / PDCD4 expression in lung tissue: 1 assessed after 12 days of dosing; for ERK levels in lung tissue / PDCD4 expression in lung tissue: IHC
Source text: In Vivo Studies to Assess Metastasis of Breast Cancer to the Lung. Female NOD/SCID mice (n=10; 5-7 weeks) were used for in vivo breast cancer metastasis studies as previously reported^6. Briefly, mice purchased from Jackson Laboratory were intravenously injected (tail vein) with MDA-MB-231-Luc cells (0.8×10^6 cells/mice). Luciferase activity was monitored every other day to determine when to initiate treatment [averaged luciferase signal from mice is ten times higher than the background as measured by LagoX (Spectral Instruments)]. After 5 days, the mice were split into three groups, with each group having the same luciferase signal. […]. After 30 days, lungs were harvested and immediately fixed in Bouin's solution (Sigma, HT10132-1L) for 24 h to image nodules. After counting the nodules, the fixed lungs were washed in 60 mL of 10% formalin solution four times over 48 h to remove Bouin's solution. Paraffin-embedded sections of the lungs were then generated by the Histology Core at Scripps Research Florida for further staining.
Lung Tissue Histology. All histological analyses were performed as previously reported^6. The slides were stained on a Leica BondMax Immunostaining platform by using a DAB refine kit. H&E staining and PDCD4, pERK and ERK IHC were performed by the Histology Core at Scripps Research Florida. All antibodies were used at a 1:100 dilution: anti-PDCD4 (Abcam, ab51495); anti-pERK (Cell Signaling Technology, 4370S); and ERK (Cell Signaling Technology, 9102S). The primary antibodies were detected using a DAB Substrate Kit (Vector Laboratories, Inc.) per the manufacturer's protocol.
To visualize miR-21 and pre-miR-21 by fluorescence in situ hybridization (FISH), the paraffin-embedded sections were incubated at 56° C. overnight and cleaned with xylene three times, followed by washing with serially diluted concentrations of ethanol (100%, 95%, 90%, and 85%). The slides were then washed with MilliQ water three times and immersed in 0.3% (v/v) H2O2 for 30 min at room temperature. The slides were then washed with MilliQ water three times and digested with proteinase K (QIAGEN) at 37° C. for 15 min. After washing three times with MilliQ water, the slides were dehydrated with 95% ethanol and air-dried completely at room temperature. The slides were then hybridized with FITC-labeled LNA probes^6 complementary to mature ([…]*/36-FAM SEQ ID NO: 16) or pre-miR-21 ([…]/36-FAM SEQ ID NO: 17) at […] overnight. After hybridization, the slides were washed with 2×SSC (saline sodium citrate buffer) three times and then 1×DPBS three times, all at room temperature. The slides were then incubated with an anti-FITC horseradish peroxidase-conjugated antibody (Abcam) for 2 h at room temperature. The slides were washed with 1×TBST three times.
After staining of interest was completed, the slides were dehydrated, cover-slipped with Cytoseal 60, and imaged with a Leica DM13000 B upright fluorescent microscope.

FLT3 = molecular target: T1, FLT3 (Homo sapiens, UniProt P36888); assay: Cellular Chem-CLIP/C-Chem-CLIP to study occupancy of an RTK; type: cell-based
T1 construct: endogenous in cells; host or cells: MDA-MB-231
T1 sequence (P36888 27-993): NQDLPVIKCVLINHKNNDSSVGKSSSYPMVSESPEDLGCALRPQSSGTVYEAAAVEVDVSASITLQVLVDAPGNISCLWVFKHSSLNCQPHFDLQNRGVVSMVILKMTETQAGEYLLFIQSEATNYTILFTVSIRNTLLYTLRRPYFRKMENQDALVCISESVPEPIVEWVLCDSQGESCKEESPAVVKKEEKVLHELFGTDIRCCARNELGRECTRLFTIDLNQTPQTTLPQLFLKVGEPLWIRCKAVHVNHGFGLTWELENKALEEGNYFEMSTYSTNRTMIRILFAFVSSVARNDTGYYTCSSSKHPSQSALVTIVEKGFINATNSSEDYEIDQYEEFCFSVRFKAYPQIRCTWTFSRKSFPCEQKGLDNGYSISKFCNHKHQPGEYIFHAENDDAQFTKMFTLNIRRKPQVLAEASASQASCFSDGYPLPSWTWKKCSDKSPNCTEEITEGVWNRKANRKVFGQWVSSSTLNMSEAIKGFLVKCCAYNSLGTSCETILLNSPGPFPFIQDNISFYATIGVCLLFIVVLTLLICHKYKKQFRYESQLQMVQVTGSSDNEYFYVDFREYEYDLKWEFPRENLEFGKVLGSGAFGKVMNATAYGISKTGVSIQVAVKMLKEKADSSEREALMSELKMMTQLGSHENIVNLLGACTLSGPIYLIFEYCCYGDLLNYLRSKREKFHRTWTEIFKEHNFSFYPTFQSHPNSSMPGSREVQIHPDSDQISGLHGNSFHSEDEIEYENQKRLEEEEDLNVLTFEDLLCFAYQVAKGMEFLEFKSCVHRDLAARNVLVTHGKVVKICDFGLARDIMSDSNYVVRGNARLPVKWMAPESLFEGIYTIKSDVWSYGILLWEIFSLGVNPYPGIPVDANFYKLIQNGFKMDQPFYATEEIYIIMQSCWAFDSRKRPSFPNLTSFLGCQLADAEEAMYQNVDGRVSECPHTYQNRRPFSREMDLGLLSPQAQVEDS
Procedure: Cellular Chem-CLIP/C-Chem-CLIP to Study Occupancy of an RTK. Compound treatment and isolation of cells was completed as described for cellular occupancy studies of pre-miR-21. Total protein was extracted and concentration determined as described in the “Western Blotting” section. Approximately 1 mg of total protein was used for following pull-down experiments, using a protocol adapted from a previously published method 8. Protein cross-linked to the probe were clicked to disulfide biotin azide as described above except the amount of each reagents was doubled (20 μL/sample). Then, to the mixture was added ice-cold, 4:1 mixture of methanol/chloroform (2.5 mL) followed by 1 mL of ice-cold 1×DPBS. The mixture was centrifuged at 5000×g for 10 min at 4° C. to fractionate a protein interphase between organic and aqueous layers. […] The washed protein mixture was centrifuged at 5000×g for 10 min at 4° C. to pellet the protein. The pellet was dissolved in H2O, and to this solution was added 20 μLL streptavidin beads for 30 min at room temperature. The solution was removed, and the beads were washed once with 0.2% SDS in 1×DPBS, twice with detergent-free 1×DPBS and twice with nanopure water. After these washing steps, protein was cleaved as described above. The supernatant was collected, and protein concentration was determined with Pierce Micro BCA Protein Assay kit. […] Sample preparation was completed as described above for cellular Chem-CLIP studies. Western blotting was performed on total protein (10 μg) before or after pull-down, indicated as “Input” or “Output”, as described in Western Blotting.

Structure (SMILES) | weight change of NOD/Scid mice (MDA-MB-231-Luc cells; 56 mg/kg q.o.d., over 38 days) | pre-miR-21 levels in lung tissue (MDA-MB-231-Luc cells) | ERK levels in lung tissue (MDA-MB-231-Luc cells) | PDCD4 expression in lung tissue (MDA-MB-231-Luc cells) | hematoxylin and eosin (HE) staining of lung (MDA-MB-231-Luc cells; mouse, in vivo) | fold decrease / difference in cellular protein occupancy versus 1 (FLT3) | competition of FLT3 enrichment by probe 4 (FLT3; 0.01-10 μM pre-treatment) | IC50 (FLT3; C-Chem-CLIP, MDA-MB-231, read-out: IC50 for inhibition of the Chem-CLIP probe binding to FLT3) | concentration competing off probe 4 from FLT3 to the same extent (FLT3; probe 4 1 μM) | enrichment of FLT3 by probe (FLT3; MDA-MB-231)
CCOC(=O)C1=C(Nc2ccccc2)S/C(=C\c2ccc(OCCOCCOCCOCCNC(=O)NCCN3CCN(c4ccc5[nH]c(-c6c(N)c7c(F)cccc7[nH]c6=O)nc5c4)CC3)c(O)c2)C1=O [Compound 2, Ribotac-Dovitinib] | did not cause significant changes in weight | significantly diminished | had no effect | derepressed | decrease | 100 fold | competed off | 10 µM | 10 µM | –
CN1CCN(c2ccc3nc(-c4c(N)c5c(F)cccc5[nH]c4=O)[nH]c3c2)CC1 [Compound 1, Dovitinib, reference compound] | – | did not affect | did not affect | did not affect | – | – | – | – | – | –
C#CCCC1(CCC(=O)NCCN2CCN(c3ccc4[nH]c(-c5c(N)c6c(F)cccc6[nH]c5=O)nc4c3)CC2)N=N1 [Compound 4] | – | – | – | – | – | – | – | – | – | enriched
